{"source": "patent US10533231B2", "about": "“Artificial bioluminescent enzyme” (NATIONAL INSTITUTE OF ADVANCED INDUSTRIAL SCIENCE AND …, priority 2012, dated 2020)", "molecules": {"B1": {"name": "A16-KDEL: ALuc16 with KDEL, localized in the endoplasmic reticulum, SEQ ID NO: 18 (protein)", "chain": "MMGIKVLFALICFALVQANPTENKDDIDIVGVEGKFGTTDLETDLFTIVEDMNVISRDTDVDANRADRGRRGKLPGKKLPLEVLKELEANAQKAGCTRGCLICLSHIKCTAKMKKWLPGRCESWEGDKETGQGGIGEAIVDIPEIPGFKDLEPMEQFIAQVDLCVDCTTGCLKGLANVKCSDLLKKWLPSRCATFASKIQAQVDKIKGAGGSKDEL", "modifications": "KDEL ER retention signal; Synthetic KDEL-linked ALuc16"}}, "key": {"[1]": {"system": "EB3 cells expressing cSimgr13", "assay": "Stress hormone sensitivity of ES cells expressing cSimgr13 (Example 1-17)", "format": "cell-based", "conditions": "10^−5 M, 20 minutes", "procedure": "Novel ES cells expressing cSimgr13, which is an integrated-molecule-format bioluminescent probe containing the ALuc of Example 10 in its frame structure were established to visualize stress hormone sensitivity (FIG. 17). First, EB3 cells, which are feeder-free embryonic stem cells (ES), were cultured in a 10 cm dish, and then a pcDNA3.1 (+) vector encoding cSimgr13 was introduced into the EB3 cells. In the presence of G418, transformed cells stably expressing cSimgr13 were established.\nOne day after the subculturing of the transformed cells in a microslide, some of the cells in the wells were used as a control (0.1% DMSO), and the others were stimulated with 10^−5 M stress hormone (cortisol) for 20 minutes. Subsequently, after lysis, the cells were illuminated using a substrate-containing assay buffer in accordance with the protocol of luminescence assay kit produced by Promega, and the luminescence intensity was measured using an LAS-4000."}, "[2]": {"system": "artificial luciferase (ALuc)", "assay": "Search for assay buffer compatible with C3 (Example 2-2)", "format": "cell-based", "conditions": "C3 lysis; 8- and 16-minute point", "procedure": "After 16-hour incubation in a CO2 incubator, 50 μL of a C3 solution was added to each well to allow for cell lysis for 20 minutes. Substrate-containing assay buffers shown in FIG. 24 were individually added simultaneously (50 μL each) to the lysate, and the relative luminescence intensities were immediately measured with an LAS-4000 (Fujifilm). After the substrate-containing assay buffers were further added, the luminescence at the 8- and 16-minute point was measured to examine the luminescence stability."}, "[3]": {"target": "estrogen receptor (ER LBD) (Homo sapiens, UniProt P03372)", "sequence (P03372 311-547 limits assumed, species assumed)": "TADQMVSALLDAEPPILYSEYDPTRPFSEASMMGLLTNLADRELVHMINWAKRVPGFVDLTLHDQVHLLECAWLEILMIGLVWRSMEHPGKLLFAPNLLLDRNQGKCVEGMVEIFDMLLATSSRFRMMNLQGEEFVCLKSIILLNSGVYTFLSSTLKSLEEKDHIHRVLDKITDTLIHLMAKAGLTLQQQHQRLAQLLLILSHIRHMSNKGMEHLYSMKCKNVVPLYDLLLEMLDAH", "conditions": "10^−5 M, 20 minutes, COS-7 cells with pSimer-r2, C16 one-shot buffer"}, "[4]": {"target": "T1, integrated-molecule-format bioluminescent probe with androgen receptor (Homo sapiens, UniProt P10275)", "T1 construct": "an androgen receptor (AR LED) was inserted therebetween; expressed in transfected cells; host or cells: COS-7", "T1 sequence (P10275 669-900 limits assumed)": "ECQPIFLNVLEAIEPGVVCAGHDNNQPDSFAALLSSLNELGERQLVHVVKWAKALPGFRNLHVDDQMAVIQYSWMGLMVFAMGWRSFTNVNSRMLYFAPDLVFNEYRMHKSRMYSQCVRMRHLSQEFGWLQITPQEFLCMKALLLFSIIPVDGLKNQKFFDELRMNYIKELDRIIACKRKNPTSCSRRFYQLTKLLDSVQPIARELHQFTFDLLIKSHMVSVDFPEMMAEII", "assay": "Effect of adding halogen ions, androgen probe (Example 2-5)", "format": "cell-based", "conditions": "about 100 mM", "procedure": "After 16-hour incubation in a CO2 incubator, 50 μL of a C3 solution was added to each well to allow for cell lysis for 20 minutes."}, "[5]": {"assay": "Luminescent capsule probe, luminescence stability and intensity (Example 1-7)", "format": "cell-based", "conditions": "localized in the endoplasmic reticulum", "from_the_text": "A “luminescent capsule” probe containing the artificial luciferase (ALuc) of the present invention in its frame structure was developed (FIG. 7). The basic molecular structure of the luminescent capsule of the present invention comprises an extracellular secretion signal (SP), ALuc, a suitable cargo protein (peptide), and a membrane localization signal. Because of the SP, the probe is first transferred to the endoplasmic reticulum, and then transferred from the endoplasmic reticulum to the plasma membrane. This probe is designed to finally localize in the plasma membrane by the function of MLS (FIG. 7 AB).\nThe luminescent capsule has the ability to localize a fluorescence protein (mPlum), other luciferases (RLuc8.6-535), and a peptide (DEVD sequence, etc.) in the plasma membrane. […] The luminescent reaction speed of the luminescent capsule after substrate injection was faster than those of other molecules (FIG. 7D). Further, the luminescent capsule containing a […] (SEQ ID NO: 19) was confirmed to have a different luminescent reaction speed according to the presence or absence of a cell death-inducing chemical substance (STS) (FIG. 7E). The luminescence stability of the luminescent capsule was also confirmed by using a microplate reader for luminescence measurement (FIG. 7F)."}, "COS-7 cells [6]": {"system": "COS-7 cells", "assay": "Luminescence image of COS-7 cell lysate on microslide (Example 1-20)", "format": "cell-based", "conditions": "Promega lysate and assay buffer", "procedure": "(§1) Similarly, COS-7 cells were cultured in a microslide produced by ibidi. After the cells were raised to a certain level, the following genes were transferred to the cells in the channels. Channel group 1: pcDNA3.1 plasmid having a gene encoding Cypridina luciferase; Channel group 2: pcDNA3.1 plasmid having a gene encoding A16-KDEL; and Channel group 3: pcDNA3.1 plasmid having a gene encoding a luminescent capsule based on A16 (i.e., A16-MLS).\nAfter gene transfer, culturing was performed for another 16 hours. 20 minutes before imaging, 40 μL of a lysate buffer produced by Promega was added, and the resultant was allowed to stand for 20 minutes. Further, a substrate-containing assay buffer produced by Promega was added to the medium of each channel, and the luminescence image obtained after the addition was measured using an LAS-4000 (FujiFilm)."}, "COS-7 cells [7]": {"system": "COS-7 cells", "assay": "Living cell imaging (Example 1-20)", "format": "cell-based", "conditions": "HBSS buffer containing substrate", "procedure": "as §1, with “First, COS-7” for “Similarly, COS-7”, “encoding a luminescent enzyme derived from Renilla reniformis (RLuc8.6-535);” for “encoding Cypridina luciferase;”, “on ALuc16” for “on A16”\nAfter gene transfer, culturing was performed for another 16 hours. Immediately before imaging, the medium was substituted with an HBSS buffer containing a substrate, and the luminescence image obtained after the substitution was measured using an LAS-4000 (FujiFilm)."}}}
{"molecule": "C[C@]12CCC(=O)C=C1CC[C@@H]1[C@@H]2[C@@H](O)C[C@@]2(C)[C@H]1CC[C@]2(O)C(=O)CO", "note": "[cortisol]", "values": [{"measurement": "luminescence vs control (0.1% DMSO)", "setting": "[1]", "value": "stronger luminescence than the control"}]}
{"molecule": "bovine serum albumin [BSA]", "values": [{"measurement": "luminescence stability with assay buffer", "setting": "[2]", "value": "the luminescence intensity and luminescence stability were poor"}]}
{"molecule": "4-hydroxytamoxifen [OHT]", "values": [{"measurement": "luminescence higher than the background", "setting": "[3]", "value": "about 5 folds"}]}
{"molecule": "[Br-].[K+]", "note": "[KBr]", "values": [{"measurement": "effect of halogen ion addition", "setting": "[4]", "value": "excellent results"}]}
{"molecule": "B1", "values": [{"measurement": "luminescence intensity", "setting": "[5]", "value": "poor luminescence intensity"}, {"measurement": "luminescence of cell lysate", "setting": "COS-7 cells [6]", "value": "strong luminescence"}, {"measurement": "luminescence image of living cells", "setting": "COS-7 cells [7]", "value": "strong luminescence image"}]}
